Counter-ions that a name gives are not always drawn. Like-named read-outs stand apart in the source and are kept apart here.
Key:
[1] = Hydrolytic stability in 0.5M hydrochloric acid at 25° for 20 hrs (NMR of residue); format: physicochemical
Experimental: For example, a solution of 0.6 g of N-(2-methylaminoethyl)-1,1a,6,10b-tetrahydrodibenzo[a,e]cyclopropa[c]cyclohepten-6-imine in 20 ml of 0.5M hydrochloric acid was stirred at 25° for 20 hrs. The solution was cooled and 10 ml of 10% sodium hydroxide solution was added, and the oil was twice extracted with a solution of 25% methylene chloride in ether. The combined organic extracts were thoroughly washed with saturated brine, dried and solvent removed. The NMR spectrum of the residue (0.5 g) indicated about 40% decomposition of the imine to the ketone occurred.
This stability to hydrolysis is advantageous in preparation, storage, and use of pharmaceutical dosage forms.

[2] = system: tetrabenazine-induced depression in mice; experiment: Antagonism of tetrabenazine-induced sedation and depression in mice, orally at 1 hour post-drug; format: in vivo, Carworth CF1 S female mice; settings: for ED50: Mus musculus, po, 1 h
Experimental: Relief from ptosis was recorded when exactly 2 seconds after placing the mouse facing the observer, lid closure was less than 50% in both eyes.

[3] = mice, oral, 1 hour post-drug, tetrabenazine 32 mg/kg intraperitoneally 30 minutes after compound, read-out: ED50 for prevention of exploratory loss
[4] = mice, oral, 1 hour post-drug, tetrabenazine 32 mg/kg intraperitoneally 30 minutes after compound, read-out: ED50 for prevention of ptosis
[5] = mice, oral, 1 hour post-drug, tetrabenazine 32 mg/kg intraperitoneally 30 minutes after compound, 60 min
[6] = mice, oral, 1 hour post-drug, tetrabenazine 32 mg/kg intraperitoneally 30 minutes after compound, hydrochloride, 60 min

SMILES: CNCCN=C1c2ccccc2C2CC2c2ccccc21 (centres unmarked) [N-(2-methylaminoethyl)-1,1a,6,10b-tetrahydrodibenzo[a,e]cyclopropa[c]cyclohepten-6-imine, reference compound]
- degraded at 20 h ([1]; 0.5 m hcl, 0.6 g in 20 ml of 0.5M hydrochloric acid, by NMR, read-out: decomposition of the imine to the ketone): ~40%

SMILES: CN(C)CCCN1c2ccccc2CCc2ccccc21 [imipramine, reference compound]
- ED50 ([2]; read-out: ED50 for prevention of exploratory loss): 3 mg/kg
- ED50 ([2]; read-out: ED50 for prevention of ptosis): 2.5 mg/kg

SMILES: CN(C)CCON=C1c2ccccc2C2CC2c2ccccc21 (centres unmarked) [H CH2 CH2 N(CH3)2, 1,1a,6,10b-Tetrahydrodibenzo[a,e]cyclopropa[c]cyclohepten-6-one 0-[2-(dimethylamino)ethyl]oxime]
- ED50 [2, 3]: 2.3 mg/kg
- ED50 [2, 4]: 0.4 mg/kg

SMILES: CN(C)CCC=C1c2ccccc2CCc2ccccc21 [amitriptyline, reference compound]
- ED50 [2, 3]: 4.7 mg/kg
- ED50 [2, 4]: 1.7 mg/kg

SMILES: NCCON=C1c2ccccc2C2CC2c2ccccc21 (centres unmarked) [H CH2 CH2 NH2, 1,1a,6,10b-Tetrahydrodibenzo[a,e]cyclopropa[c]cyclohepten-6-one 0-(2-aminoethyl)oxime]
- ED50 for prevention of ptosis ([2]; mice, oral, 1 hour post-drug, tetrabenazine 32 mg/kg intraperitoneally 30 minutes after compound): 0.09 mg/kg
- ED50 for prevention of exploratory loss [2, 5]: 0.25 mg/kg

SMILES: NCCON=C1c2ccccc2C2CC2c2ccccc21 (centres unmarked) [H CH2 CH2 NH2 . HCl]
- ED50 [2, 4]: 0.09 mg/kg
- ED50 for prevention of exploratory loss [2, 5]: 0.10 mg/kg

SMILES: c1ccc2c(c1)C(=NOCCN1CCCC1)c1ccccc1C1CC21 (centres unmarked)
- ED50 [2, 3]: 10.4 mg/kg
- ED50 [2, 4]: 4.8 mg/kg

SMILES: CNCCON=C1c2ccccc2C2CC2c2ccccc21 (centres unmarked) [H CH2 CH2 NHCH3, 1,1a,6,10b-Tetrahydrodibenzo[a,e]cyclopropa[c]cyclohepten-6-one 0-[2-(methylamino)ethyl]oxime]
- ED50 [2, 3]: 1.9 mg/kg
- ED50 [2, 4]: 0.33 mg/kg
- decomposition (in words) ([1]; same procedure: 0.5M hydrochloric acid): no detectable decomposition

SMILES: c1ccc2c(c1)C(=NOCCN1CCOCC1)c1ccccc1C1CC21 (centres unmarked)
- ED50 [2, 3]: 3 mg/kg
- ED50 [2, 4]: 1 mg/kg

SMILES: CC(C)N(CCON=C1c2ccccc2C2CC2c2ccccc21)C(C)C (centres unmarked) [H CH2 CH2 N[CH(CH3)2]2, 1,1a,6,10b-Tetrahydrodibenzo[a,e]cyclopropa[c]cyclohepten-6-one 0-[2-(diisopropylamino)ethyl]oxime]
- ED50 [2, 3]: 5.2 mg/kg
- ED50 [2, 4]: 3.3 mg/kg

SMILES: CN(C)CCCON=C1c2ccccc2C2CC2c2ccccc21 (centres unmarked) [H CH2 CH2 CH2 N(CH3)2, 1,1a,6,10b-Tetrahydrodibenzo[a,e]cyclopropa[c]cyclohepten-6-one 0-[3-(dimethylamino)propyl]oxime]
- ED50 [2, 3]: 15.6 mg/kg
- ED50 [2, 4]: 9 mg/kg

SMILES: CN(C)CCON=C1c2ccccc2C2CC2c2ccccc21 (centres unmarked) [H CH2 CH2 N(CH3)2 . HCl, 1,1a,6,10b-Tetrahydrodibenzo[a,e]cyclopropa[c]cyclohepten-6-one 0-[2-(dimethylamino)ethyl]oxime hydrochloride]
- ED50 for prevention of exploratory loss [2, 6]: 1.4 mg/kg
- ED50 for prevention of ptosis [2, 6]: 0.5 mg/kg

SMILES: c1ccc2c(c1)C(=NOCCN1CCCCC1)c1ccccc1C1CC21 (centres unmarked)
- ED50 [2, 3]: 4.7 mg/kg
- ED50 [2, 4]: 1.7 mg/kg

Reference: patent publication US4008331A, “Antidepressant 1,1a,6,10b-tetrahydrodibenzo-[a,e]-cyclopropa-[c]-cyclohepten-6-substitu ted oximes” (E. I. Du Pont de Nemours and Company, priority 1976, dated 1977)
